Test system: Mouse Type II Collagen-Induced Arthritis
Assay: Mouse type II collagen-induced arthritis, arthritis score / inhibition rate
Type: in vivo
Settings: compound A 30 mg/kg orally once a day for 10 days; DBA/1 J mice; day following the final administration
Procedure: Eight-week-old male DBA/1 J mice (9 or 10 mice per group; Charles River Laboratories Japan) were used. A 2 mg/mL bovine type II collagen dissolved in a 0.1 mol/L acetic acid solution (Koken Co., Ltd.) was mixed with an equal volume of Freund's complete adjuvant (BD Diagnostic Systems) to prepare an emulsion. The emulsion (0.2 mL) was intradermally injected into the hip of each mouse. Twenty-one days after the primary immunization, the same treatment was carried out (secondary sensitization), so that type II collagen arthritis was induced.
Compound A was dissolved in a 2-fold molar amount of sodium hydroxide solution, and a 3-fold weight of polyvinylpyrrolidone was then added to the solution, followed by dilution with distilled water. The concentration of compound A in a compound A (30 mg/kg)-dosing solution was adjusted to be 3 mg/mL. The concentration of compound A in compound A (3 mg/kg)-dosing solution for combined administration was adjusted to be 0.3 mg/mL. Each dosing solution was orally administered to the mice.
The anti-TNFα antibody was dissolved in phosphate buffered saline. The concentration of the anti-TNFα antibody in the anti-TNFα antibody (250 μg/mouse)-dosing solution was adjusted to be 1.25 mg/mL. […]
The knuckle portion and the articulations of wrist and tarsus portions of the four paws of each mouse were evaluated using the following 4 scores. […]

With `O=C(O)CCc1cc(C(=O)c2ccc(OC3CCCC3)cc2O)ccc1OCc1ccc2c(O)noc2c1` [Compound A, 3-(5-(4-(cyclopentyloxy)-2-hydroxybenzoyl)-2-((3-hydroxy-1,2-benzisoxazol-6-yl)methoxy)phenyl)propionic acid] the “Arthritis inhibition rate (%)” value was 23%.

Reference: patent US20110020366A1, “USE OF BENZOPHENONE DERIVATIVE OR SALT THEREOF AND TNF ALPHA INHIBITOR IN COMBINATION AND PHARMACEUTICAL COMPOSITION CONTAINING THE DERIVATIVE OR SALT THEREOF AND THE INHIBITOR” (TOYAMA CHEMICAL CO., LTD., priority 2008, published 2011)
